Measured values from US20250276982A1, “KRAS INHIBITORS” (ASCENTAGE PHARMA (SUZHOU) CO., LTD., priority 2021, published 2025).

What was measured:
Format in all cases: cell-based
[1] = tested on: p-ERK in AGS cells; test: p-ERK assay in AGS cells (fixed cells, anti-p-ERK / β-Actin antibodies, IR imaging); settings: Homo sapiens, 3 h at 37° C., p-ERK detected by antibody with β-Actin, IR fluorescence
Experimental: The expression of p-ERK was detected in this assay. At first, the AGS cells (40000 cells/well) were seeded in 96-well plate culture overnight and treated with KRAS-G12D compounds inhibitors at concentrations of 1, 0.33, 0.11, 0.03, 0.01, 0.004, 0.001, 0.0004, 0.0001 μM for 3 h at 37° C. Then, add an equal volume (100 μL) of 8% paraformaldehyde solution to fix and crosslink the cells to the microplate for 15 minutes. Add 100 μL of 1× permeabilization solution to wells for 30 min and add 100 μL of 1× blocking solution for 2 h. Wash with PBS 3 times after each reaction. At last, Incubation with primary antibody (Anti-mouse β-Actin and Anti-rabbit p-ERK) and secondary antibody (Goat anti-Mouse IgG H&L IRDye 800CW and Goat anti-Rabbit IgG H&L IRDye 680RW) for 2 h, As appropriate, image the microplate with an IR scanner or develop the HRP labeled microplate and read it with a spectrophotometer. The fluorescence signal was monitored using a microplate reader (Azure biosystems, Sapphire biomolecular imager) using excitation and emission wavelengths of 680 and 800 nm, respectively. Export data. The inhibitor dose-reponse curves were analyzed using normalized IC50 regression curve fitting with control based normalization.

[2] = tested on: GP2d cells; test: Cellular proliferation assay in GP2d cells (CellTiterGlo luminescent cell viability assay); settings: 72 hours treatment, CellTiter-Glo
Experimental: Example 32: Cellular Proliferation Assay in GP2d Cells
The inhibitory effect of test compounds on cellular proliferation was determined using CellTiterGlo® luminescent cell viability assay (Promega) following manufacturer's instruction.
GP2d cells (ECACC #95090715) were cultured in DMEM medium supplemented with 10% fetal bovine serum, 10 U/ml penicillin and 10 ug/ml streptomycin. Cells were plated in 96-well plates at a density of 2000 cells/well and allowed attach for […]. Then the cells were treated with various concentrations of test compounds for 72 hours. CellTiter-Glo® Reagent was added to wells and incubated for 10 minutes at room temperature. The plates were read on GloMax® 96 Microplate Luminometer or compatible microplate readers. The percentage of cellular viability was calculated as: […]

[3] = tested on: phosphorylation of ERK1/2 in AGS cells with KRAS-G12D mutation; test: Detection of phosphorylation of ERK1/2 in AGS cells (AlphaLISA SureFire Ultra p-ERK 1/2 (Thr202/Tyr204) assay); settings: Homo sapiens, 3 hours, AlphaLISA p-ERK 1/2 (Thr202/Tyr204)
Experimental: Example 33: Detection of Phosphorylation of ERK1/2 in AGS Cells
The inhibitory effect of test compounds on phosphorylation of ERK1/2 were determined using the AlphaLISA® SureFire® Ultra™ p-ERK 1/2 (Thr202/Tyr204) assay following the manufacturer's instructions (ALSU-PERK-A500, PerkinElmer Inc.).
AGS cells (ATCC CRL-1739) with KRAS-G12D mutation were cultured in DMEM medium supplemented with 10% fetal bovine serum, 10 U/ml penicillin and 10 μg/ml streptomycin. Cells were plated in 96-well plates at a density of 4000 cells/well. After 16-18 hours incubation, various concentrations of compounds were added to cells with a final concentration of 0.2% DMSO. After 3 hours, the medium was removed, and the cells were lysed in 50 uL lysis buffer. 10 uL of lysate was transferred to a half area 96-well plate, 5 ul of acceptor mix was added to wells and incubated at room temperature for 1 hour, then 5 ul of donor mix was added to wells. After 1 hour incubation at room temperature, the plate was read on an Alpha Technology-compatible plate reader, using standard AlphaLISA settings. The assays were carried out in duplicates.

Oc1cc(-c2ncc3c(N4C[C@H]5CC[C@@H](C4)N5)nc(OC[C@@]45CCCN4C[C@H](F)C5)nc3c2F)c2c(ccc3ccoc32)c1 [Example 1, 9-(4-((1R,5S)-3,8-diazabicyclo[3.2.1]octan-3-yl)-8-fluoro-2-(((2R,7aS)-2-fluorotetrahydro-1H-pyrrolizin-7a(5H)-yl)methoxy)pyrido[4,3-d]pyrimidin-7-yl)naphtho[1,2-b]furan-7-ol]
IC50 [1]: 107 nM
IC50 [2]: 680 nM
IC50 [3]: 408 nM

Oc1cc(-c2ncc3c(N4C[C@H]5CC[C@@H](C4)N5)nc(OC[C@@]45CCCN4C[C@H](F)C5)nc3c2F)c2c3c(ccc2c1)CCC3 [Example 2, 9-(4-((1R,5S)-3,8-diazabicyclo[3.2.1]octan-3-yl)-8-fluoro-2-(((2R,7aS)-2-fluorotetrahydro-1H-pyrrolizin-7a(5H)-yl)methoxy)pyrido[4,3-d]pyrimidin-7-yl)-2,3-dihydro-1H-cyclopenta[a]naphthalen-7-ol]
IC50 [1]: 11 nM
IC50 [2]: 130 nM
IC50 [3]: 78 nM

O=C1CCc2ccc3cc(O)cc(-c4ncc5c(N6C[C@H]7CC[C@@H](C6)N7)nc(OC[C@@]67CCCN6C[C@H](F)C7)nc5c4F)c3c21 [Example 17, 9-(4-((1R,5S)-3,8-diazabicyclo[3.2.1]octan-3-yl)-8-fluoro-2-(((2R,7aS)-2-fluorotetrahydro-1H-pyrrolizin-7a(5H)-yl)methoxy)pyrido[4,3-d]pyrimidin-7-yl)-7-hydroxy-2,3-dihydro-1H-cyclopenta[a]naphthalen-1-one]
IC50 [1]: 272 nM
IC50 [2]: 16000 nM

OCC1Cc2ccc3cc(O)cc(-c4ncc5c(N6C[C@H]7CC[C@@H](C6)N7)nc(OC[C@@]67CCCN6C[C@H](F)C7)nc5c4F)c3c2C1 (stereo partly drawn) [Example 18, 9-(4-((1R,5S)-3,8-diazabicyclo[3.2.1]octan-3-yl)-8-fluoro-2-(((2R,7aS)-2-fluorotetrahydro-1H-pyrrolizin-7a(5H)-yl)methoxy)pyrido[4,3-d]pyrimidin-7-yl)-2-(hydroxymethyl)-2,3-dihydro-1H-cyclopenta[a]naphthalen-7-ol]
IC50 [1]: 240 nM
IC50 [2]: 17000 nM

Oc1cc(-c2ncc3c(N4C[C@H]5CC[C@@H](C4)N5)nc(OC[C@@]45CCCN4C[C@H](F)C5)nc3c2F)c2c(c1)c(Cl)c1n2CCC1 [Example 20, 5-(4-((1R,5S)-3,8-diazabicyclo[3.2.1]octan-3-yl)-8-fluoro-2-(((2R,7aS)-2-fluorotetrahydro-1H-pyrrolizin-7a(5H)-yl)methoxy)pyrido[4,3-d]pyrimidin-7-yl)-9-chloro-2,3-dihydro-1H-pyrrolo[1,2-a]indol-7-ol]
IC50 [1]: 226 nM
IC50 [2]: 2410 nM

Oc1cc(-c2ncc3c(N4C[C@H]5CC[C@@H](C4)N5)nc(OC[C@@]45CCCN4C[C@H](F)C5)nc3c2F)c2c3c(ccc2c1)COC3 [Example 21, 9-(4-((1R,5S)-3,8-diazabicyclo[3.2.1]octan-3-yl)-8-fluoro-2-(((2R,7aS)-2-fluorotetrahydro-1H-pyrrolizin-7a(5H)-yl)methoxy)pyrido[4,3-d]pyrimidin-7-yl)-1,3-dihydronaphtho[1,2-c]furan-7-ol]
IC50 [1]: 52 nM
IC50 [2]: 263 nM

Oc1cc(-c2ncc3c(N4C[C@H]5CC[C@@H](C4)N5)nc(OCC4(CN5C6CCC5COC6)CC4)nc3c2F)c2c3c(ccc2c1)CCC3 [Example 23, 9-(2-((1-((3-oxa-8-azabicyclo[3.2.1]octan-8-yl)methyl)cyclopropyl)methoxy)-4-((1R,5S)-3,8-diazabicyclo[3.2.1]octan-3-yl)-8-fluoropyrido[4,3-d]pyrimidin-7-yl)-2,3-dihydro-1H-cyclopenta[a]naphthalen-7-ol]
IC50 [1]: 33 nM
IC50 [2]: 908 nM

Oc1cc(-c2ccc3c(N4C[C@H]5CC[C@@H](C4)N5)nc(OCC4(CN5CC6COCC6C5)CC4)nc3c2F)c2c3c(ccc2c1)CCC3 (stereo partly drawn) [Example 24, 9-(4-((1R,5S)-3,8-diazabicyclo[3.2.1]octan-3-yl)-8-fluoro-2-((1-((tetrahydro-1H-furo[3,4-c]pyrrol-5 (3H)-yl)methyl)cyclopropyl)methoxy)quinazolin-7-yl)-2,3-dihydro-1H-cyclopenta[a]naphthalen-7-ol]
IC50 [1]: 24 nM
IC50 [2]: 120 nM

C[C@@H]1COCCN1CC1(COc2nc(N3C[C@H]4CC[C@@H](C3)N4)c3ccc(-c4cc(O)cc5ccc6c(c45)CCC6)c(F)c3n2)CC1 [Example 25, 9-(4-((1R,5S)-3,8-diazabicyclo[3.2.1]octan-3-yl)-8-fluoro-2-((1-(((R)-3-methylmorpholino)methyl)cyclopropyl)methoxy)quinazolin-7-yl)-2,3-dihydro-1H-cyclopenta[a]naphthalen-7-ol]
IC50 [1]: 18 nM
IC50 [2]: 303 nM

Oc1cc(-c2ccc3c(N4C[C@H]5CC[C@@H](C4)N5)nc(OCC4(CN5CCOCC5)CC4)nc3c2F)c2c3c(ccc2c1)CCC3 [Example 26, 9-(4-((1R,5S)-3,8-diazabicyclo[3.2.1]octan-3-yl)-8-fluoro-2-((1-(morpholinomethyl)cyclopropyl)methoxy)quinazolin-7-yl)-2,3-dihydro-1H-cyclopenta[a]naphthalen-7-ol]
IC50 [1]: 39 nM
IC50 [2]: 195 nM

Oc1cc(-c2ccc3c(N4C[C@H]5CC[C@@H](C4)N5)nc(OCC4(CN5C6CCC5COC6)CC4)nc3c2F)c2c3c(ccc2c1)CCC3 [Example 27, 9-(2-((1-((3-oxa-8-azabicyclo[3.2.1]octan-8-yl)methyl)cyclopropyl)methoxy)-4-((1R,5S)-3,8-diazabicyclo[3.2.1]octan-3-yl)-8-fluoroquinazolin-7-yl)-2,3-dihydro-1H-cyclopenta[a]naphthalen-7-ol]
IC50 [1]: 131 nM
IC50 [2]: 370 nM

Oc1cc(-c2c(F)cc3c(N4C[C@H]5CC[C@@H](C4)N5)nc(OCC4(CN5C6CCC5COC6)CC4)nc3c2F)c2c3c(ccc2c1)CCC3 [Example 28, 9-(2-((1-((3-oxa-8-azabicyclo[3.2.1]octan-8-yl)methyl)cyclopropyl)methoxy)-4-((1R,5S)-3,8-diazabicyclo[3.2.1]octan-3-yl)-6,8-difluoroquinazolin-7-yl)-2,3-dihydro-1H-cyclopenta[a]naphthalen-7-ol]
IC50 [1]: 87 nM
IC50 [2]: 253 nM

Oc1cc(-c2c(F)cc3c(N4C[C@H]5CC[C@@H](C4)N5)nc(OCC4(CN5CCOCC5)CC4)nc3c2F)c2c3c(ccc2c1)CCC3 [Example 29, 9-(4-((1R,5S)-3,8-diazabicyclo[3.2.1]octan-3-yl)-6,8-difluoro-2-((1-(morpholinomethyl)cyclopropyl)methoxy)quinazolin-7-yl)-2,3-dihydro-1H-cyclopenta[a]naphthalen-7-ol]
IC50 [1]: 44 nM
IC50 [2]: 273 nM
